Among the test systems are 786-0; PC-3; RXF 393; SK-MEL-5; HOP-92; NCI-H460; MOLT-4; HCT-15; OVCAR-3; SF-268; BT-549; LOX IMVI; Hs-578T; UO-31; KM12; NCI-H226; EKVX; UACC-62; Malme-3M; SR.
Common to all, as to experiment: NCI tumour cell line growth inhibition, 48 h

Data on 4 compounds can be found in ChEMBL document CHEMBL1201862, “PubChem BioAssay data set” (2004).

Each structure is given as a SMILES string.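 48-hour exposure; five concentrations; linearly interpolated endpoints. GI50 = concentration required for 50% inhibition of growth.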 Activity calls are given as the source filed them. Cut-off read from the data, not from the text of the source: active = GI50 up to about 1.1 µM and inactive = higher.

On to `O=C(CNc1ccccc1[N+](=O)[O-])Nn1c(-c2ccccc2)nc2ccccc2c1=O`, for which the GI50 in the experiment with 786-0 was 18.9 µM (inactive); in the experiment on PC-3, 22.2 µM (inactive); in the experiment with RXF 393 it was 20.1 µM (inactive); in the experiment with SK-MEL-5, 10.4 µM (inactive); with HOP-92, 12.4 µM (inactive); in the experiment with NCI-H460, 20.9 µM (inactive). For the same compound, the GI50 with MOLT-4 is 16.1 µM (inactive); with HCT-15 it was 19.9 µM; in the experiment on OVCAR-3, 29.4 µM (inactive); with SF-268 it was 32.4 µM (inactive); with BT-549 it was 17.9 µM (inactive); with LOX IMVI, 11.2 µM (inactive). Also, the GI50 in the experiment on Hs-578T is 27.4 µM (inactive); in the experiment on UO-31, 18.7 µM (inactive); in the experiment on KM12 it was > 10 µM (inactive); in the experiment with NCI-H226, 29.2 µM (inactive); in the experiment with EKVX, 19.6 µM (inactive); in the experiment with UACC-62, 10.7 µM (inactive). Further, the GI50 is 23.9 µM (inactive) with Malme-3M and 18.2 µM (inactive) in the experiment on SR.

As for `O=c1c(=O)c2c(Br)sc(Br)c2c1=O`, the GI50 was 22.6 µM (inactive) in the experiment on 786-0; 19.2 µM (inactive) with PC-3; 18.7 µM (inactive) with RXF 393; 16.9 µM (inactive) with SK-MEL-5; 17.9 µM (inactive) in the experiment on HOP-92; > 100 µM (inactive) with NCI-H460. Besides, the GI50 with MOLT-4 was 24.3 µM (inactive); in the experiment on HCT-15, 19.4 µM; with OVCAR-3, 18.5 µM (inactive); in the experiment with SF-268 it was 33 µM (inactive); with BT-549 it was 19.4 µM (inactive); in the experiment with LOX IMVI it was 19.7 µM (inactive). Besides, the GI50 in the experiment with Hs-578T is 31 µM (inactive); in the experiment with UO-31, 33 µM (inactive); in the experiment on KM12 it was > 100 µM (inactive); in the experiment with NCI-H226, > 100 µM (inactive); in the experiment with EKVX, 20.1 µM (inactive); with UACC-62, 20.1 µM (inactive). For the same compound, the GI50 was 17.7 µM (inactive) in the experiment on Malme-3M and 20.6 µM (inactive) with SR.

Consider `COC(=O)C12C3C4C1C1C2C3C41C(=O)NC(C)(C)CC(=O)O` (stereo not given), for which the GI50 was > 100 µM (inactive) in the experiment with 786-0; > 100 µM (inactive) with PC-3; > 100 µM (inactive) in the experiment with RXF 393; > 100 µM (inactive) in the experiment on SK-MEL-5; > 100 µM (inactive) with HOP-92; 20.7 µM (inactive) in the experiment with NCI-H460. Besides, the GI50 in the experiment with MOLT-4 was > 100 µM (inactive); in the experiment on HCT-15 it was more than 100 µM; with OVCAR-3, > 100 µM (inactive); in the experiment with SF-268, > 100 µM (inactive); in the experiment on BT-549 it was > 100 µM (inactive); in the experiment on LOX IMVI, > 100 µM (inactive). Further, the GI50 in the experiment with Hs-578T, with UO-31, in the experiment with KM12, with NCI-H226, in the experiment on EKVX and in the experiment with UACC-62 was > 100 µM (inactive) throughout. In addition, the GI50 with Malme-3M and in the experiment with SR was > 100 µM (inactive) throughout.

In the case of `Cc1ccc(OP(=O)(Oc2ccc(C)cc2)N2C=Cc3ccccc3C2C#N)cc1` (stereo not given), the GI50 with 786-0, with PC-3, with RXF 393, in the experiment on SK-MEL-5, in the experiment with HOP-92 and with NCI-H460 was > 100 µM (inactive) throughout. Further, the GI50 is > 100 µM (inactive) in the experiment with MOLT-4; more than 100 µM with HCT-15; > 100 µM (inactive) in the experiment on OVCAR-3; > 100 µM (inactive) in the experiment on SF-268; > 100 µM (inactive) with BT-549; > 100 µM (inactive) with LOX IMVI. The GI50 is 70.5 µM (inactive) in the experiment with Hs-578T; > 100 µM (inactive) in the experiment on UO-31; > 100 µM (inactive) in the experiment with KM12; > 100 µM (inactive) in the experiment on NCI-H226; > 100 µM (inactive) with EKVX; > 100 µM (inactive) with UACC-62. The GI50 was 82.8 µM (inactive) in the experiment on Malme-3M and > 100 µM (inactive) in the experiment on SR.
